Measurements taken from ChEMBL document CHEMBL5096235, “In Silico Exploration and Biological Evaluation of Bispecific Peptides Derived from Anti-HER2 Antibodies and Peptide-Camptothecin Conjugates for HER2-Positive Breast Cancer” (J Med Chem, 2022).
The source made the active and inactive calls. No cut-off for these calls is given here. Residues, ends and D or L forms follow the SMILES beside them. *: point of attachment. X1 = CC[C@@]1(OC(=O)CCCCCN2CC(=O)C(*)C2=O)C(=O)OCc2c1cc1n(c2=O)Cc2cc3ccccc3nc2-1; X2 = CC[C@@]1(OC(=O)CCS*)C(=O)OCc2c1cc1n(c2=O)Cc2cc3ccccc3nc2-1

Tests used:
[1] = biological target: T1, Receptor tyrosine-protein kinase erbB-2 (Homo sapiens, UniProt P04626); test: Binding affinity to HER2 in HER-positive human SK-BR-3 cells assessed as increase in fluorescence intensity at 25 uM by Hoechst 33342 staining based confocal microscopic analysis; assay type: cell-based
[2] = biological target: T1, Receptor tyrosine-protein kinase erbB-2; test: Binding affinity to recombinant HER2 (unknown origin) assessed as dissociation constant by SPR analysis
[3] = Metabolic stability in Sprague-Dawley rat plasma assessed as half life incubated for 120 mins by LC-MS/MS analysis; assay type: ADME, cell-free
[4] = Metabolic stability in Sprague-Dawley rat plasma assessed as drug degradation incubated for 120 mins by LC-MS/MS analysis; assay type: ADME, cell-free; details: 2 h
[5] = test system: SK-OV-3; test: Cytotoxicity against HER-positive human SK-OV-3 cells assessed as inhibition of cell growth incubated for 48 hrs by MTT assay; assay type: functional, cell-based; details: SK-OV-3, 48 h
[6] = test system: MDA-MB-231; test: Cytotoxicity against HER-negative human MDA-MB-231 cells assessed as inhibition of cell growth incubated for 48 hrs by MTT assay; assay type: functional, cell-based; details: MDA-MB-231, 48 h
[7] = Cytotoxicity against human MCF-10A cells assessed as inhibition of cell growth incubated for 48 hrs by MTT assay; assay type: toxicity, cell-based
[8] = test system: SK-BR-3; test: Cytotoxicity against HER-positive human SK-BR-3 cells assessed as inhibition of cell growth incubated for 48 hrs by MTT assay; assay type: functional, cell-based; details: SK-BR-3, 48 h
[9] = test system: NCI-N87; test: Cytotoxicity against HER-positive human NCI-N87 cells assessed as inhibition of cell growth incubated for 48 hrs by MTT assay; assay type: functional, cell-based; details: NCI-N87, 48 h

T1 sequence (P04626 whole entry): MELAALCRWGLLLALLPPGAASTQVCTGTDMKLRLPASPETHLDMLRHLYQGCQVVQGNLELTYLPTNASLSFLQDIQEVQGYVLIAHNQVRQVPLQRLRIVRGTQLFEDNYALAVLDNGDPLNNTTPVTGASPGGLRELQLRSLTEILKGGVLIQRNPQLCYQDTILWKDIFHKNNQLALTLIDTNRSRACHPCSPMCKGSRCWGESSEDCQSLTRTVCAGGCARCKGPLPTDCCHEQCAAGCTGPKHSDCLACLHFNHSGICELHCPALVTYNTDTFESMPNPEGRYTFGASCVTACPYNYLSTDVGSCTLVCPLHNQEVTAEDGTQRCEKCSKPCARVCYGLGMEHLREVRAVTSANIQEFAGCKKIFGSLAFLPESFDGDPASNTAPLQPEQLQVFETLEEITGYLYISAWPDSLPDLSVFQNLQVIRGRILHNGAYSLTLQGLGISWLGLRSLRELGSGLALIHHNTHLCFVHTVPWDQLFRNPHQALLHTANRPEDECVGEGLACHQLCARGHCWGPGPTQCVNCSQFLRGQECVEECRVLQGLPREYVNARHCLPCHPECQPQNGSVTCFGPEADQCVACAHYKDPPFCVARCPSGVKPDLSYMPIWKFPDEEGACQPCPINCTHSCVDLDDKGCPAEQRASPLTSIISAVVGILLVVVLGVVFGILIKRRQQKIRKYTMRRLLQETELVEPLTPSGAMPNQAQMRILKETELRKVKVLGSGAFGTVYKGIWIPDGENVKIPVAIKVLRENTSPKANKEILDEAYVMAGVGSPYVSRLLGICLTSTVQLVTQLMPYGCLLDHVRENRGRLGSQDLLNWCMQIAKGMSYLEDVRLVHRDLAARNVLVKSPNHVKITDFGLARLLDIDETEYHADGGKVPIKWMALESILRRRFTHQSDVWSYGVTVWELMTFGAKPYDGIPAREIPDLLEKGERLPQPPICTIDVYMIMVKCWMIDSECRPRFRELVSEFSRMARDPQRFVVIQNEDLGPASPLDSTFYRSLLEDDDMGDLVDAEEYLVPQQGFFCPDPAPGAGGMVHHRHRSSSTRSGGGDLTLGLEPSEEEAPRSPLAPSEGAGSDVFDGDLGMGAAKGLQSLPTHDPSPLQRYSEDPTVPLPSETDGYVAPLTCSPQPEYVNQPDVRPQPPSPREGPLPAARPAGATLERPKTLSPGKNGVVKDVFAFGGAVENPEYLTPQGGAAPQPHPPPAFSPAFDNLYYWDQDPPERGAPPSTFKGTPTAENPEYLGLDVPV

Kd [2] [µM]	Compound	IC50 [5] [µM]	IC50 [6] [µM]	IC50 at 48 h [7] [µM]	IC50 [8] [µM]	IC50 [9] [µM]	further results
12.3	N=C(N)NCCC[C@H](NC(=O)CNC(=O)[C@H](Cc1c[nH]c2ccccc12)NC(=O)[C@@H]1CCCN1C(=O)[C@@H]1CCCN1C(=O)[C@@H](N)CC(N)=O)C(=O)N[C@@H](CO)C(=O)N[C@@H](CCCNC(=N)N)C(=O)N[C@@H](Cc1ccc(O)cc1)C(=O)N[C@@H](CC(N)=O)C(=O)N[C@@H](CCC(N)=O)C(=O)N[C@@H](CCCNC(=N)N)C(=O)N[C@@H](Cc1ccccc1)C(=O)N[C@@H](CCCCN)C(=O)O (H-NPPWGRSRYNQRFK-OH)						
0.151	CC[C@H](C)[C@H](NC(=O)[C@H](CCCNC(=N)N)NC(=O)CNC(=O)[C@H](CS)NC(=O)CNC(=O)[C@H](CCCCN)NC(=O)[C@H](Cc1ccccc1)NC(=O)[C@H](CCCNC(=N)N)NC(=O)[C@H](CCC(N)=O)NC(=O)[C@H](CC(N)=O)NC(=O)[C@H](Cc1ccc(O)cc1)NC(=O)[C@H](Cc1c[nH]c2ccccc12)NC(=O)[C@H](CO)NC(=O)[C@H](CCCNC(=N)N)NC(=O)CNC(=O)[C@H](Cc1c[nH]c2ccccc12)NC(=O)[C@H](CC(N)=O)NC(=O)[C@@H]1CCCN1C(=O)[C@@H](N)CC(N)=O)C(=O)N[C@@H](CCCCN)C(=O)N1CCC[C@H]1C(=O)N[C@@H](CCCNC(=N)N)C(=O)N[C@@H](CCCCN)C(=O)NCC(=O)N[C@@H](Cc1ccc(O)cc1)C(=O)N[C@H](C(=O)N[C@@H](CCCNC(=N)N)C(=O)O)[C@@H](C)O (H-NPNWGRSWYNQRFKGCGRIKPRKGYTR-OH)						half-life [3]: 15 min; Stability [4]: Unstable
14.3	N=C(N)NCCC[C@H](NC(=O)[C@H](CCC(N)=O)NC(=O)[C@H](CC(N)=O)NC(=O)[C@H](Cc1ccc(O)cc1)NC(=O)[C@H](Cc1c[nH]c2ccccc12)NC(=O)[C@H](CO)NC(=O)[C@H](Cc1ccc(O)cc1)NC(=O)CNC(=O)[C@H](Cc1c[nH]c2ccccc12)NC(=O)[C@H](CC(N)=O)NC(=O)[C@@H]1CCCN1C(=O)[C@@H](N)CC(N)=O)C(=O)N[C@@H](Cc1ccccc1)C(=O)N[C@H](C=O)CCCCN (H-NPNWGYSWYNQRFK-aldehyde)						
9.89	N=C(N)NCCC[C@H](NC(=O)[C@H](CCC(N)=O)NC(=O)[C@H](CC(N)=O)NC(=O)[C@H](Cc1ccc(O)cc1)NC(=O)[C@H](CCCNC(=N)N)NC(=O)[C@H](CO)NC(=O)[C@H](Cc1c[nH]c2ccccc12)NC(=O)CNC(=O)[C@H](Cc1c[nH]c2ccccc12)NC(=O)[C@H](CC(N)=O)NC(=O)[C@@H]1CCCN1C(=O)[C@@H](N)CC(N)=O)C(=O)N[C@@H](Cc1ccccc1)C(=O)N[C@@H](CCCCN)C(=O)O (H-NPNWGWSRYNQRFK-OH)						
8.9	N=C(N)NCCC[C@H](NC(=O)[C@H](CCC(N)=O)NC(=O)[C@H](CC(N)=O)NC(=O)[C@H](Cc1ccc(O)cc1)NC(=O)[C@H](Cc1c[nH]c2ccccc12)NC(=O)[C@H](CO)NC(=O)[C@H](Cc1c[nH]c2ccccc12)NC(=O)CNC(=O)[C@H](Cc1c[nH]c2ccccc12)NC(=O)[C@H](CC(N)=O)NC(=O)[C@@H]1CCCN1C(=O)[C@@H](N)CC(N)=O)C(=O)N[C@@H](Cc1ccccc1)C(=O)N[C@@H](CCCCN)C(=O)O (H-NPNWGWSWYNQRFK-OH)						
5.7	N=C(N)NCCC[C@H](NC(=O)CNC(=O)[C@H](Cc1c[nH]c2ccccc12)NC(=O)[C@H](CC(N)=O)NC(=O)[C@@H]1CCCN1C(=O)[C@@H](N)CC(N)=O)C(=O)N[C@@H](CO)C(=O)N[C@@H](Cc1c[nH]c2ccccc12)C(=O)N[C@@H](Cc1ccc(O)cc1)C(=O)N[C@@H](CC(N)=O)C(=O)N[C@@H](CCC(N)=O)C(=O)N[C@@H](CCCNC(=N)N)C(=O)N[C@@H](Cc1ccccc1)C(=O)N[C@@H](CCCCN)C(=O)O (H-NPNWGRSWYNQRFK-OH)						

More lines, now with the values behind:

Compound	Kd [2] [µM]	IC50 [5] [µM]	IC50 [6] [µM]	IC50 at 48 h [7] [µM]	IC50 [8] [µM]	IC50 [9] [µM]	further results
CC[C@H](C)[C@H](NC(=O)[C@H](CCCNC(=N)N)NC(=O)CNC(=O)[C@H](CS)NC(=O)CNC(=O)[C@H](CCCCN)NC(=O)[C@H](Cc1ccccc1)NC(=O)[C@H](CCCNC(=N)N)NC(=O)[C@H](CCC(N)=O)NC(=O)[C@H](CC(N)=O)NC(=O)[C@H](Cc1ccc(O)cc1)NC(=O)[C@H](Cc1c[nH]c2ccccc12)NC(=O)[C@H](CO)NC(=O)[C@H](CCCNC(=N)N)NC(=O)CNC(=O)[C@H](Cc1c[nH]c2ccccc12)NC(=O)[C@H](CC(N)=O)NC(=O)[C@@H]1CCCN1C(=O)[C@H](N)CC(=O)NC(=S)Nc1ccc2c(c1)C(=O)OC21c2ccc(O)cc2Oc2cc(O)ccc21)C(=O)N[C@@H](CCCCN)C(=O)N1CCC[C@@H]1C(=O)N[C@H](CCCNC(=N)N)C(=O)N[C@H](CCCCN)C(=O)NCC(=O)N[C@H](Cc1ccc(O)cc1)C(=O)N[C@@H](C(=O)N[C@H](CCCNC(=N)N)C(N)=O)[C@H](C)O							Activity [1]: Active
CC[C@H](C)[C@H](NC(=O)[C@@H](N)CCCNC(=N)N)C(=O)N[C@@H](CCCCN)C(=O)N1CCC[C@H]1C(=O)N[C@@H](CCCNC(=N)N)C(=O)N[C@@H](CCCCN)C(=O)NCC(=O)N[C@@H](Cc1ccc(O)cc1)C(=O)N[C@H](C(=O)N[C@@H](CCCNC(=N)N)C(=O)NCC(=O)N[C@@H](CSSCCC(=O)O[C@]1(CC)C(=O)OCc2c1cc1n(c2=O)Cc2cc3ccccc3nc2-1)C(=O)NCC(=O)N[C@@H](CC(N)=O)C(=O)N1CCC[C@H]1C(=O)N[C@@H](CC(N)=O)C(=O)N[C@@H](Cc1c[nH]c2ccccc12)C(=O)NCC(=O)N[C@@H](CCCNC(=N)N)C(=O)N[C@@H](CO)C(=O)N[C@@H](Cc1c[nH]c2ccccc12)C(=O)N[C@@H](Cc1ccc(O)cc1)C(=O)N[C@@H](CC(N)=O)C(=O)N[C@@H](CCC(N)=O)C(=O)N[C@@H](CCCNC(=N)N)C(=O)N[C@@H](Cc1ccccc1)C(=O)N[C@@H](CCCCN)C(N)=O)[C@@H](C)O (H-RIKPRKGYTRGC(X2)GNPNWGRSWYNQRFK-NH2)		6.25	10.9	20.4	6.42	5.76	
CC[C@H](C)[C@H](NC(=O)[C@@H](N)CCCNC(=N)N)C(=O)N[C@@H](CCCCN)C(=O)N1CCC[C@H]1C(=O)N[C@@H](CCCNC(=N)N)C(=O)N[C@@H](CCCCN)C(=O)NCC(=O)N[C@@H](Cc1ccc(O)cc1)C(=O)N[C@H](C(=O)N[C@@H](CCCNC(=N)N)C(=O)NCC(=O)N[C@@H](CSSCCC(=O)O[C@]1(CC)C(=O)OCc2c1cc1n(c2=O)Cc2cc3ccccc3nc2-1)C(=O)NCC(=O)N[C@@H](CSSCCC(=O)O[C@]1(CC)C(=O)OCc2c1cc1n(c2=O)Cc2cc3ccccc3nc2-1)C(=O)NC(=O)C[C@H](NC(=O)CN)C(=O)N1CCC[C@H]1C(=O)N[C@@H](CC(N)=O)C(=O)N[C@@H](Cc1c[nH]c2ccccc12)C(=O)NCC(=O)N[C@@H](CCCNC(=N)N)C(=O)N[C@@H](CO)C(=O)N[C@@H](Cc1c[nH]c2ccccc12)C(=O)N[C@@H](Cc1ccc(O)cc1)C(=O)N[C@@H](CC(N)=O)C(=O)N[C@@H](CCC(N)=O)C(=O)N[C@@H](CCCNC(=N)N)C(=O)N[C@@H](Cc1ccccc1)C(=O)N[C@@H](CCCCN)C(N)=O)[C@@H](C)O		4.12	11.5	18.2	1.49	7.37	
CC[C@H](C)[C@H](NC(=O)[C@@H](N)CCCNC(=N)N)C(=O)N[C@@H](CCCCN)C(=O)N1CCC[C@H]1C(=O)N[C@@H](CCCNC(=N)N)C(=O)N[C@@H](CCCCN)C(=O)NCC(=O)N[C@@H](Cc1ccc(O)cc1)C(=O)N[C@H](C(=O)N[C@@H](CCCNC(=N)N)C(=O)O)[C@@H](C)O (H-RIKPRKGYTR-OH)	7.6						
CC[C@H](C)[C@H](NC(=O)[C@@H](N)CCCNC(=N)N)C(=O)N[C@@H](CCCCN)C(=O)N1CCC[C@H]1C(=O)N[C@@H](CCCNC(=N)N)C(=O)N[C@@H](CCCCN)C(=O)NCC(=O)N[C@@H](Cc1ccc(O)cc1)C(=O)N[C@H](C(=O)N[C@@H](CCCNC(=N)N)C(=O)NCC(=O)N[C@@H](CSC1C(=O)CN(CCCCCC(=O)O[C@]2(CC)C(=O)OCc3c2cc2n(c3=O)Cc3cc4ccccc4nc3-2)C1=O)C(=O)NCC(=O)N[C@@H](CSC1C(=O)CN(CCCCCC(=O)O[C@]2(CC)C(=O)OCc3c2cc2n(c3=O)Cc3cc4ccccc4nc3-2)C1=O)C(=O)NC(=O)C[C@H](NC(=O)CN)C(=O)N1CCC[C@H]1C(=O)N[C@@H](CC(N)=O)C(=O)N[C@@H](Cc1c[nH]c2ccccc12)C(=O)NCC(=O)N[C@@H](CCCNC(=N)N)C(=O)N[C@@H](CO)C(=O)N[C@@H](Cc1c[nH]c2ccccc12)C(=O)N[C@@H](Cc1ccc(O)cc1)C(=O)N[C@@H](CC(N)=O)C(=O)N[C@@H](CCC(N)=O)C(=O)N[C@@H](CCCNC(=N)N)C(=O)N[C@@H](Cc1ccccc1)C(=O)N[C@@H](CCCCN)C(N)=O)[C@@H](C)O (stereo not given in full)		20.4	28.2	25.2	6.72	10.9	
CC[C@H](C)[C@H](NC(=O)[C@@H](N)CCCNC(=N)N)C(=O)N[C@@H](CCCCN)C(=O)N1CCC[C@H]1C(=O)N[C@@H](CCCNC(=N)N)C(=O)N[C@@H](CCCCN)C(=O)NCC(=O)N[C@@H](Cc1ccc(O)cc1)C(=O)N[C@H](C(=O)N[C@@H](CCCNC(=N)N)C(=O)NCC(=O)N[C@@H](CSC1C(=O)CN(CCCCCC(=O)O[C@]2(CC)C(=O)OCc3c2cc2n(c3=O)Cc3cc4ccccc4nc3-2)C1=O)C(=O)NCC(=O)N[C@@H](CC(N)=O)C(=O)N1CCC[C@H]1C(=O)N[C@@H](CC(N)=O)C(=O)N[C@@H](Cc1c[nH]c2ccccc12)C(=O)NCC(=O)N[C@@H](CCCNC(=N)N)C(=O)N[C@@H](CO)C(=O)N[C@@H](Cc1c[nH]c2ccccc12)C(=O)N[C@@H](Cc1ccc(O)cc1)C(=O)N[C@@H](CC(N)=O)C(=O)N[C@@H](CCC(N)=O)C(=O)N[C@@H](CCCNC(=N)N)C(=O)N[C@@H](Cc1ccccc1)C(=O)N[C@@H](CCCCN)C(N)=O)[C@@H](C)O (stereo not given in full) (H-RIKPRKGYTRGC(X1)GNPNWGRSWYNQRFK-NH2)		24.4	23.1	35.2	25.4	15.3	
